Where two headings read alike, the source gives them in different places.
Columns and labels:
Format in all cases: physicochemical
[1] = β-sheet content by ATR-FT-IR; settings: for b -sheet / %: Fig. S7 panel A, β-sheet content by ATR-FT-IR
Protocol: For ATR FT–IR spectroscopy measurements, 200 µL of the respective 1 mg/mL PNF solution was lyophilized and the resulting powder used for measurement. All spectra were recorded on a Bruker Tensor 27 spectrometer with a diamond crystal as ATR element (PIKE MiracleTM, spectral resolution 2 cm^-1). Every sample was measured with 64 scans. Data were analyzed with OriginLab software and calculation of β–sheet content was conducted according to a previous report. TEM. For TEM measurements 5 µL of PNF fibrils (1 mg/mL) were placed on copper grids coated with carbon and formvar layer (300 mesh, Plano GmbH). After 10 min incubation time, the grids were staining with 4% uranyl acetate solution for 2.5 min and washed with water. Measurements were performed on a Jeol 1400 electron microscope with 120 kV acceleration voltage. CR Assay. For the determination of the amount of peptide monomer converting into nanostructures the amine reactive dye fluorescamine was used analogous to a previous reported protocol. Briefly, 100 µL of the preformed PNF solution was centrifuged in a Vivaspin 500 tube (3 kDa MWCO) to separate fibers from free peptide monomer (16200 x g, 4 °C, 45 min). The filtrate and 100 μL of the non-filtered PNF sample were lyophilized and dissolved in 30 μL DMSO. 10 μL of the filtrate and non-filtered DMSO samples were submitted in a black UV Star® 384 microliter well–plates (Greiner bio–one) and 3 μL of the fluorescamine solution (10 mg/mL, DMSO) was added to measure the fluorescence enhancement. After 20 min of incubation at RT, fluorescence was recorded on an Infinite® M1000 PRO microplate reader (Tecan) at λem = 470 nm upon excitation at λex = 365 nm with 10 nm bandwidths and multiple reads per well (3×3). Measurements were repeated in triplicates and averaged with standard deviation. All values were calculated as n-fold fluorescence enhancement (DMSO only as a reference was set to 1). The conversion rate CR was defined according to the equation Eq. (3).3 CR=100−100×fluorescenceintensityfiltrate/fluorescenceintensityoriginal[%]

[2] = Zeta-potential measurement; settings: for Zeta pot. / mV: 1 mg/mL in PBS pH 7.4 from 10 mg/mL DMSO stock, 1 d RT, 60 µL diluted in 600 µL 1 mM KCl, Zetasizer Nano ZS, Smoluchowski, mean of triplicate
Method in brief: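 In this measurement, peptides aggregated for a day at RT in phosphate-buffered saline (pH 7.4, 1 mg/mL) are diluted into 1 mM potassium chloride, and the electrophoretic mobility is translated into zeta potential by Smoluchowski's relation.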

[3] = Turbidity, derived count rate of scattered light; settings: for Count Rate: derived count rate of scattered light (turbidity); for Log10 Count Rate: turbidity, derived count rate of scattered light, data of Figure 2D
[4] = zeta potential of peptide assemblies
[5] = zeta-potential of peptide, source data of Figure 2C
[6] = zeta-potential of the peptide assemblies, mean, Figure 3A source data

Substance | b -sheet / % [1] [%] | Zeta-Pot. [2, 4] | Zeta-Potential / mV [2, 5] [mV] | Zeta-Potential / mV [2, 6] [mV] | Count Rate [3] | Log10 Count Rate [3] | Zeta-Pot. [2] | ß-sheet / % ([1]; ATR-FT-IR of lyophilised 1 mg/mL PNF solution, peak integral ratio 1625-1635 cm-1, measured once) [%] | Zeta pot. / mV [2] [mV] | Zeta Pot. / mV [2] [mV] | Zeta category ( +1 = if > 4 mV;-1 = if < -4 mV; 0 = -4mV to 4 mV) [2] | Zeta-pot. / mV ([2]; zeta potential of peptide, Fig S15 source data) [mV] | beta sheet ([1]; peptides with TEM 2cat 0) | FTIR ß-sheet content [1] [%]
KIKIQII | 44.64 | 5.61 | 6.302 | 5.61 | 1039 | 3.017 | – | – | – | – | – | – | – | –
EIKIQINM | 48.03 | – | -20.62 | -22.33 | 2816 | 3.45 | -22.33 | – | – | – | – | – | – | –
KIKIQINMWQRGD | 47.72 | – | -0.495 | 1.69 | 2783 | 3.445 | 1.69 | 48 | 1.7 | – | – | – | – | –
CKIKQII | 25 | -3.83 | 5.568 | -3.83 | 74.6 | 1.873 | – | – | -3.83 | – | – | – | – | –
RGDSGGGGGGKIKIQIC | 40.62 | 16.7 | 16.7 | 16.7 | 10416.16667 | 4.018 | – | – | – | – | – | – | – | –
KLKLQLL | 39.56 | -4.93 | -3.1875 | -4.93 | 72.67 | 1.861 | – | – | – | – | – | – | – | –
KIKIKIQI | 40.16 | 6.97 | 9.885 | 6.97 | 999.1 | 3 | – | – | – | – | – | – | – | –
KFKFKFQF | 39.76 | 15.2 | 16.32 | 15.2 | 1036 | 3.015 | – | – | – | – | – | – | – | –
CKIKQIIRGD | – | 13.2 | 13.2 | 13.2 | 3495 | 3.544 | – | – | – | – | – | – | – | –
CKFKQFFNM | 41.58 | – | 15.05 | 15.2 | 27264.3 | 4.436 | 15.2 | – | – | – | – | – | – | –
HHHHKAKAKAKAYYYY | 44.29 | 7.03 | 4.787 | 7.03 | 240.9 | 2.382 | – | – | – | – | – | – | – | –
CKIW | 46.02 | – | -2.772 | -3.71 | 3.2 | 0.5051 | -3.71 | – | – | – | – | – | – | –
KVKVQVVV | 45.8125 | 0.147 | 1.657 | 0.15 | 163.1 | 2.213 | – | – | – | – | – | – | – | –
KIKIKIKIWWWW | 37.79 | 15.2 | 14.82 | 15.2 | 12420.6 | 4.094 | – | – | – | – | – | – | – | –
CSISIQINM | 55.93 | -19.4 | -21.18 | -19.4 | 3291 | 3.517 | – | – | – | – | – | – | – | –
CEFEFQFNMWQ | 51.48 | -34.23 | -24.5 | -34.23 | 186.3 | 2.27 | – | – | – | – | – | – | – | –
CQFQFQF | 34.9 | -24.8 | -25.37 | -24.8 | 7929 | 3.899 | – | – | – | – | – | – | – | –

Substance | b -sheet / % [1] [%] | Zeta-Pot. [2, 4] | Zeta-Potential / mV [2, 5] [mV] | Zeta-Potential / mV [2, 6] [mV] | Count Rate [3] | Log10 Count Rate [3] | Zeta-Pot. [2] | ß-sheet / % ([1]; ATR-FT-IR of lyophilised 1 mg/mL PNF solution, peak integral ratio 1625-1635 cm-1, measured once) [%] | Zeta pot. / mV [2] [mV] | Zeta Pot. / mV [2] [mV] | Zeta category ( +1 = if > 4 mV;-1 = if < -4 mV; 0 = -4mV to 4 mV) [2] | Zeta-pot. / mV ([2]; zeta potential of peptide, Fig S15 source data) [mV] | beta sheet ([1]; peptides with TEM 2cat 0) | FTIR ß-sheet content [1] [%]
HHHHKIKIKIKIWWWW [TM4] | – | – | – | – | – | – | – | – | – | 14.5 | 1 (+1 = if > 4 mV) | 14.5 | – | –
RGDSKIKIQIC | 38.56 | 15.1 | 15.65 | 15.1 | 2699 | 3.431 | – | – | – | – | – | – | – | –
RGDKIKIQINMWQ | 49.07 | 6.59 | 11.21 | 6.59 | 1554 | 3.1914 | – | – | – | – | – | – | – | –
KVKVQVV | 45.1 | -7.92 | -4.675 | -7.92 | 27.73 | 1.443 | – | – | – | – | – | – | – | –
KIKIQINMWWQ | 50.48 | – | 13.17 | 11.8 | 3893 | 3.59 | 11.8 | – | – | – | – | – | 50 | –
CKFKQFFNMWQ | 59.11 | – | 10.915 | 8.56 | 8210 | 3.914 | 8.563 | – | – | – | – | – | – | –
KFKFQFW | 35.45 | – | 8.995 | 6.49 | 121.9 | 2.086 | 6.49 | – | – | – | – | – | – | –
MKIKIQINM | 38.6306 | 9.13 | 9.332 | 9.13 | 981.3 | 2.9918 | – | – | – | – | – | – | – | –
KIKIQIRGD | 47.12 | 6.43 | 4.47 | 6.43 | 114 | 2.057 | – | – | – | – | – | – | – | –
KIKIKIKI | 40.46 | 5.46 | 5.997 | 5.46 | 155.1 | 2.191 | – | – | – | – | – | – | – | –
KIKIQIW | 49.1721 | – | 11.255 | 12.5 | 144.9 | 2.161 | 12.5 | – | – | – | – | – | – | –
CEIEIQINMWQ | 49.9 | -25.8 | -26.07 | -25.8 | 1570 | 3.196 | – | – | – | – | – | – | – | –
RGDCKIKIQINM | 43 | 11.3 | 12.35 | 11.3 | 1623 | 3.2102 | – | – | – | – | – | – | – | –
KFKQFFINMWQ | 38.37 | – | 10.28 | 7.99 | 8996 | 3.954 | 7.99 | – | – | – | – | – | – | –
KIKIQIC | 52.93 | 19.93 | 19.97 | 19.93 | 980.7 | 2.992 | – | – | – | – | – | – | – | 52.93
RGDKIKIQINMC | – | 12.2 | 13.9 | 12.2 | 1404 | 3.147 | – | – | – | – | – | – | – | –

Reference: PMC10447463, “Data-mining unveils structure–property–activity correlation of viral infectivity enhancing self-assembling peptides” (Nature Communications, 2023)
